Test results as given in article PMC8091061, “Ceramide-1-phosphate transfer protein (CPTP) regulation by phosphoinositides” (The Journal of Biological Chemistry, 2021).

What was measured:
[1] = molecular target: T1, human GLTP (Homo sapiens, UniProt Q9NZD2); test: FRET intervesicular lipid transfer; type: biochemical; details: labelled compound; POPC donor to POPC acceptor vesicles, pH 6.6, 150 mM NaCl, EDTA, 25 °C; transfer cargo, not chemically converted
T1 sequence (Q9NZD2 1-209): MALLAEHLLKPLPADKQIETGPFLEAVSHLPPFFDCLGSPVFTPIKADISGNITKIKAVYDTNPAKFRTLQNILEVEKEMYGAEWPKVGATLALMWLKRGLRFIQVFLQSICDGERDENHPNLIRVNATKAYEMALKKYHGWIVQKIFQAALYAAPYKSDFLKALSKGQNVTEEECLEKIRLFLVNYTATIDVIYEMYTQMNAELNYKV

[2] = molecular target: human CPTP (wtCPTP); test: FRET from CPTP Trp/Tyr to dansyl-PE in POPC vesicles; type: binding; details: pH 6.6, 150 mM NaCl, EDTA, 25 °C
From the text: FRET from CPTP Trp/Tyr to dansyl-PE in POPC vesicles on human CPTP (wtCPTP)

[3] = apparent Kd for POPC vesicles with 10 mol% lipid and 2 mol% dansyl-PE (vesicle PC concentration, not free lipid)

Kd [2, 3] [nM]	Compound	also measured
	CCCCCCCCCCCCC/C=C/[C@@H](O)[C@H](CO[C@@H]1O[C@H](CO)[C@H](O)[C@H](O)[C@H]1O)NC(=O)CCCCCCCCC/C=C/c1c2ccccc2cc2ccccc12 [AV-GalCer]	FRET intervesicular lipid transfer [1]: GalCer transfer rates by GLTP were unaffected by PI and PI-3P
750 ± 90	CCCCCCCC/C=C\CCCCCCCC(=O)OC[C@H](COP(=O)(O)O[C@@H]1[C@H](O)[C@H](O)[C@@H](O)[C@H](O)[C@H]1O)OC(=O)CCCCCCC/C=C\CCCCCCCC [PI, 1,2-dioleoyl-sn-glycero-3-phospho-(1'-myo-inositol)]	
260 ± 30	CCCCCCCC/C=C\CCCCCCCC(=O)OC[C@H](COP(=O)(O)O[C@H]1[C@H](O)[C@@H](O)[C@H](OP(=O)(O)O)[C@@H](O)[C@H]1O)OC(=O)CCCCCCC/C=C\CCCCCCCC [PI-4P, 1,2-dioleoyl-sn-glycero-3-phospho-(1'-myo-inositol-4'-phosphate)]	
260 ± 40	CCCCCCCC/C=C\CCCCCCCC(=O)OC[C@H](COP(=O)(O)O[C@@H]1[C@H](O)[C@H](O)[C@@H](OP(=O)(O)O)[C@H](OP(=O)(O)O)[C@H]1O)OC(=O)CCCCCCC/C=C\CCCCCCCC [PI-(4,5)P2, 1,2-dioleoyl-sn-glycero-3-phospho-(1'-myo-inositol-4',5'-bisphosphate)]	
	CCCCCCCC/C=C\CCCCCCCC(=O)O[C@H](COC(=O)CCCCCCCCCCCCCCC)COP(=O)([O-])OCC[N+](C)(C)C [POPC, 1-Palmitoyl-2-oleyl-sn-glycero-3-phosphocholine]	Kd ([2]; pure POPC vesicles with 2 mol% dansyl-PE (apparent, vesicle PC concentration)): 1760 ± 200 nM
290 ± 40	PI-3P	
